The source of these data is patent USH1923H, “Herbicidal (oxaalkyl) phenyl-substituted heterocycles” (FMC Corporation, priority 1998, dated 2000).

The structures appear in SMILES notation.

In assay [1] the test system is blackgrass. The experiment in a line: postemergence herbicidal activity on blackgrass. In kind it is in vivo, Aloepecurus myosuroides. The note with it: Alopecurus myosuroides, post-emergence, 0.3 Kg/Ha, after 12-17 days, read-out: POSTEMERGENCE HERBICIDAL ACTIVITY (% CONTROL) ALOMY. Here is the method:
(§1) The (oxaalkyl)phenyl-substituted heterocycles of this invention were tested for pre- and postemergence herbicidal activity using a variety of crops and weeds. The test plants included soybean (Glycine max var. Winchester),field corn (Zea mays var. Pioneer 3732), wheat (Triticum aestivum var. Lew), morningglory (Ipomea lacunosa or Ipomea hederacea), […] (Abutilon theophrasti), green foxtail (Setaria viridis), Johnsongrass (Sorghum halepense), blackgrass (Aloepecurus myosuroides), common chickweed (Stellaria media), and common cocklebur (Xanthium strumarium L.).
(§2) For preemergence testing, two disposable fiber flats (8 cm×15 cm×25 cm) for each rate of application of each candidate herbicide were filled to an approximate depth of 6.5 cm with steam-sterilized sandy loam soil. The soil was leveled and impressed with a template to provide five evenly spaced furrows 13 cm long and 0.5 cm deep in each flat. Seeds of soybean, wheat, corn, green foxtail, and johnsongrass were planted in the furrows of the first flat, and seeds of velvetleaf, morningglory, common chickweed, cocklebur, and blackgrass were planted in the furrows of the second flat. The five-row template was employed to firmly press the seeds into place. A topping soil of equal portions of sand and sandy loam soil was placed uniformly on top of each flat to a depth of approximately 0.5 cm. Flats for postemergence testing were prepared in the same manner except that they were planted 9-14 days prior to the preemergence flats and were placed in a greenhouse and watered, thus allowing the seeds to germinate and the foliage to develop.
(§3) In both pre- and postemergence tests, a stock solution of the candidate herbicide was prepared by dissolving 0.27 g of the compound in 20 mL of water/acetone (50/50) containing 0.5% v/v sorbitan monolaurate. For an application rate of 3000 g/ha of herbicide a 10 mL portion of the stock solution was diluted with water/acetone (50/50) to 45 mL.
(§4) The preemergence flats were initially subjected to a light water spray. The four flats were placed two by two along a conveyor belt (i.e., the two preemergence followed by the two postemergence flats). The conveyor belt fed under a spray nozzle mounted about ten inches above the postemergent foliage. The preemergent flats were elevated on the belt so that the soil surface was at the same level below the spray nozzle as the foliage canopy of the postemergent plants. The spray of herbicidal solution was commenced and once stabilized, the flats were passed under the spray at a speed to receive a coverage equivalent of 1000 L/ha. At this coverage the application rates are those shown in the above table for the individual herbicidal solutions. The preemergence flats were watered immediately thereafter, placed in the greenhouse and watered regularly at the soil surface. The postemergence flats were immediately placed in the green-house and not watered until 24 hours after treatment with the test solution. Thereafter they were regularly watered at ground level. After 12-17 days the plants were examined and the phytotoxicity data were recorded.
(§5) Phytotoxicity data were taken as percent control. Percent control was by a method similar to the 0 to 1 00 rating system disclosed in "Research Methods in Weed Science," 2nd ed., B. Truelove, Ed.; Southern Weed Science Society; Auburn University, Auburn, Ala., 1977.

Assay [2] relates to chickweed. In words: preemergence herbicidal activity on chickweed. In kind it is in vivo. The note with it: Stellaria media, pre-emergence, 0.3 Kg/Ha, after 12-17 days, read-out: PREEMERGENCE HERBICIDAL ACTIVITY (% CONTROL) STEME. As to the method: as §1, §2, §3, §4, §5
In assay [3] the test system is morningglory. The experiment in a line: postemergence herbicidal activity on morningglory. The format is in vivo, Ipomea lacunosa or Ipomea hederacea. The note with it: Ipomoea, post-emergence, 0.3 Kg/Ha, after 12-17 days, read-out: POSTEMERGENCE HERBICIDAL ACTIVITY (% CONTROL) IPOSS. Here is the method: as §1, §2, §3, §4, §5
Assay [4] deals with velvetleaf. The experiment in a line: postemergence herbicidal activity on velvetleaf. In kind it is in vivo. The note with it: Abutilon theophrasti, post-emergence, 0.3 Kg/Ha, after 12-17 days, read-out: POSTEMERGENCE HERBICIDAL ACTIVITY (% CONTROL) ABUTH. Here is the method: as §1, §2, §3, §4, §5
Assay [5] has as its system velvetleaf. In words: preemergence herbicidal activity on velvetleaf. The format is in vivo. The note with it: Abutilon theophrasti, pre-emergence, 0.3 Kg/Ha, after 12-17 days, read-out: PREEMERGENCE HERBICIDAL ACTIVITY (% CONTROL) ABUTH. As to the method:
as §1, §2, §3, §4, §5

In assay [6] the test system is johnsongrass. In words: postemergence herbicidal activity on johnsongrass. In kind it is in vivo. The note with it: Sorghum halepense, post-emergence, 0.3 Kg/Ha, after 12-17 days, read-out: POSTEMERGENCE HERBICIDAL ACTIVITY (% CONTROL) SORHA. As to the method:
as §1, §2, §3, §4, §5

Assay [7] has as its system johnsongrass. The experiment in a line: preemergence herbicidal activity on johnsongrass. The format is in vivo. The note with it: Sorghum halepense, pre-emergence, 0.3 Kg/Ha, after 12-17 days, read-out: PREEMERGENCE HERBICIDAL ACTIVITY (% CONTROL) SORHA. As to the method: as §1, §2, §3, §4, §5
The subject of assay [8] is green foxtail. The experiment in a line: postemergence herbicidal activity on green foxtail. The format is in vivo. The note with it: Setaria viridis, post-emergence, 0.3 Kg/Ha, after 12-17 days, read-out: POSTEMERGENCE HERBICIDAL ACTIVITY (% CONTROL) SETVI. As to the method:
as §1, §2, §3, §4, §5

Assay [9] deals with blackgrass. The experiment in a line: preemergence herbicidal activity on blackgrass. In kind it is in vivo, Aloepecurus myosuroides. The note with it: Alopecurus myosuroides, pre-emergence, 0.3 Kg/Ha, after 12-17 days, read-out: PREEMERGENCE HERBICIDAL ACTIVITY (% CONTROL) ALOMY. As to the method:
as §1, §2, §3, §4, §5

In assay [10] the test system is soybean. In words: preemergence herbicidal activity on soybean. In kind it is in vivo, Glycine max var. Winchester. The note with it: Glycine max, pre-emergence, 0.3 Kg/Ha, after 12-17 days, read-out: PREEMERGENCE HERBICIDAL ACTIVITY (% CONTROL) SOY. Here is the method:
as §1, §2, §3, §4, §5

Assay [11] has as its system soybean. In words: postemergence herbicidal activity on soybean. In kind it is in vivo, Glycine max var. Winchester. The note with it: Glycine max, post-emergence, 0.3 Kg/Ha, after 12-17 days, read-out: POSTEMERGENCE HERBICIDAL ACTIVITY (% CONTROL) SOY. Here is the method:
as §1, §2, §3, §4, §5

The subject of assay [12] is morningglory. In words: preemergence herbicidal activity on morningglory. In kind it is in vivo, Ipomea lacunosa or Ipomea hederacea. The note with it: Ipomoea, pre-emergence, 0.3 Kg/Ha, after 12-17 days, read-out: PREEMERGENCE HERBICIDAL ACTIVITY (% CONTROL) IPOSS. Here is the method: as §1, §2, §3, §4, §5
For assay [13], the system named is cocklebur. In words: preemergence herbicidal activity on cocklebur. The note with it: Xanthium strumarium, pre-emergence, 0.3 Kg/Ha, after 12-17 days, read-out: PREEMERGENCE HERBICIDAL ACTIVITY (% CONTROL) XANPE. In kind it is in vivo, Xanthium strumarium L. Here is the method:
as §1, §2, §3, §4, §5

Assay [14] concerns corn. The experiment in a line: preemergence herbicidal activity on corn. The format is in vivo, Zea mays var. Pioneer 3732. The note with it: Zea mays, pre-emergence, 0.3 Kg/Ha, after 12-17 days, read-out: PREEMERGENCE HERBICIDAL ACTIVITY (% CONTROL) CRN. Here is the method: as §1, §2, §3, §4, §5
Assay [15] relates to cocklebur. The experiment in a line: postemergence herbicidal activity on cocklebur. The note with it: Xanthium strumarium, post-emergence, 0.3 Kg/Ha, after 12-17 days, read-out: POSTEMERGENCE HERBICIDAL ACTIVITY (% CONTROL) XANPE. In kind it is in vivo, Xanthium strumarium L. As to the method: as §1, §2, §3, §4, §5
Assay [16] deals with corn. The experiment in a line: postemergence herbicidal activity on corn. In kind it is in vivo, Zea mays var. Pioneer 3732. The note with it: Zea mays, post-emergence, 0.3 Kg/Ha, after 12-17 days, read-out: POSTEMERGENCE HERBICIDAL ACTIVITY (% CONTROL) CRN. As to the method:
as §1, §2, §3, §4, §5

Assay [17] concerns chickweed. In words: postemergence herbicidal activity on chickweed. In kind it is in vivo. The note with it: Stellaria media, post-emergence, 0.3 Kg/Ha, after 12-17 days, read-out: POSTEMERGENCE HERBICIDAL ACTIVITY (% CONTROL) STEME. As to the method:
as §1, §2, §3, §4, §5

Assay [18] relates to wheat. In words: postemergence herbicidal activity on wheat. In kind it is in vivo, Triticum aestivum var. Lew. The note with it: Triticum aestivum, post-emergence, 0.3 Kg/Ha, after 12-17 days, read-out: POSTEMERGENCE HERBICIDAL ACTIVITY (% CONTROL) WHT. Here is the method: as §1, §2, §3, §4, §5
Assay [19] deals with wheat. The experiment in a line: preemergence herbicidal activity on wheat. The note with it: Triticum aestivum, pre-emergence, 0.3 Kg/Ha, after 12-17 days, read-out: PREEMERGENCE HERBICIDAL ACTIVITY (% CONTROL) WHT. The format is in vivo, Triticum aestivum var. Lew. Here is the method: as §1, §2, §3, §4, §5
The test system of assay [20] is green foxtail. The experiment in a line: preemergence herbicidal activity on green foxtail. The format is in vivo. The note with it: Setaria viridis, pre-emergence, 0.3 Kg/Ha, after 12-17 days, read-out: PREEMERGENCE HERBICIDAL ACTIVITY (% CONTROL) SETVI. As to the method: as §1, §2, §3, §4, §5

As for `Cn1c(C(F)(F)F)cc(=O)n(-c2cc(CC(Cl)C(C)(C)O)c(Cl)cc2F)c1=O` (centres unmarked) [Compound 1, 2-CHLORO-3-METHYL-1-[2-CHLORO-4-FLUORO-5-[1-METHYL-6-TRIFLUOROMETHYL-2,4(1H,3H)-PYRIMIDINDION-3-YL]PHENYL]BUTAN-3-OL], the activity at 300 g/ha was found to be 80% in [1]; 100% in assay [2]; 100% in assay [3]; 100% in assay [4]; 100% in assay [5]; 100% in assay [6]. The activity at 300 g/ha in [7] was found to be 95%; in assay [8], 100%; in [9] it was 80%; in assay [10], 100%; in [11], 100%; in assay [12] it was 100%. Moreover, the activity at 300 g/ha in assay [13] is 95%; in assay [14], 95%; in assay [15], 100%; in [16], 100%; in assay [17], 100%; in [18], 90%. The activity at 300 g/ha is 80% in assay [19] and 100% in assay [20].
With `CC(=O)OC(C)(C)C(Cl)Cc1cc(-n2nc(C)n(C(F)F)c2=O)c(F)cc1Cl` (centres unmarked) [Compound 17], the activity at 300 g/ha worked out at 80% in assay [1]; 95% in assay [2]; 100% in [3]; 100% in assay [4]; 100% in assay [5]; 100% in assay [6]. Besides, the activity at 300 g/ha in [7] stood at 100%; in [8] it was 100%; in assay [10], 70%; in assay [11] it was 80%; in [12] it was 100%; in assay [13], 80%. For the same compound, the activity at 300 g/ha in assay [14] worked out at 85%; in [15] it was 60%; in [16], 90%; in assay [17], 100%; in [18], 50%; in assay [19], 50%. Further, in assay [20], the activity at 300 g/ha was determined as 80%.
On to `CC(=O)OC(C)(C)C(Cl)Cc1cc(-c2nn(C)c(OC(F)F)c2Cl)c(F)cc1Cl` (centres unmarked) [Compound 18], for which the activity at 300 g/ha in assay [1] is 80%; in assay [2] it was 100%; in assay [3] it was 100%; in assay [4] it was 100%; in [5], 100%; in assay [6], 80%. Besides, the activity at 300 g/ha turned out to be 80% in assay [7]; 100% in assay [8]; 70% in [10]; 80% in [11]; 100% in assay [12]; 60% in assay [13]. Besides, the activity at 300 g/ha in assay [14] amounted to 20%; in assay [15], 90%; in assay [16], 75%; in assay [17] it was 100%; in [18], 40%; in [19] it was 20%. The activity at 300 g/ha in assay [20] is 100%.
As to `Cc1nn(-c2cc(CC(Cl)CO)c(Cl)cc2F)c(=O)n1C(F)F` (centres unmarked) [Compound 24], the activity at 300 g/ha in assay [1] is 30%; in assay [3], 100%; in assay [4], 100%; in assay [5], 100%; in [6] it was 80%; in assay [7], 65%. Moreover, the activity at 300 g/ha in assay [8] amounted to 80%; in assay [9], 10%; in assay [10], 30%; in assay [11], 80%; in assay [12], 100%; in [13] it was 95%. In addition, the activity at 300 g/ha in assay [14] is 70%; in assay [15], 100%; in assay [16] it was 80%; in [17], 10%; in assay [18], 30%; in [19], 50%. Besides, in [20], the activity at 300 g/ha was determined as 100%.
